Entries after “also recorded” stand apart in the source; their conditions may differ. Read-outs that look alike come from different tables or passages of the source.
Columns and labels:
NCEH1 [1] = target: T1, NCEH1 (Homo sapiens, UniProt Q6PIU2); assay: α-Biotin Western blot gel-based profiling of NCEH1 activity (FP-Bio labeling) in SKOV3 cells; format: cell-based; set-up: endogenous NCEH1 activity in SKOV3 cells; endogenous in cells; host or cells: SKOV3; settings: 1 μM, 4 hr pre-treatment, equivalent NCEH1 protein levels
T1 sequence (Q6PIU2 1-408): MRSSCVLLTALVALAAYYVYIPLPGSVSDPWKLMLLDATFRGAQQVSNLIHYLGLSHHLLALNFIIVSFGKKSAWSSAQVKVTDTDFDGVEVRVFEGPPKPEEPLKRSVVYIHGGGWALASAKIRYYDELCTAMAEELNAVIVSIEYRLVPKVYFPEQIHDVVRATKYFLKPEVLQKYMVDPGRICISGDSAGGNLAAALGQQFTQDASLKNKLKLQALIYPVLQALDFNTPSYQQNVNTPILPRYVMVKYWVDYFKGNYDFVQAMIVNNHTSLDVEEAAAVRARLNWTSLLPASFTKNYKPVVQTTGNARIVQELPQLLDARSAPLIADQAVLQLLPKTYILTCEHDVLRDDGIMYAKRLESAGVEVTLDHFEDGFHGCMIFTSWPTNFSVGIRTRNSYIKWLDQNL
Description: Cells were grown in 6-well plates or 6-cm dishes until reaching 80-90% confluence. FP-biotin (FP-Bio, 10 mM stock in DMSO) was diluted to 2 μM in DMEM, and added to cells at 37° C. for 40 minutes. Cells were then washed in PBS, scraped and lysed by sonication using PBS buffer supplemented with protease inhibitor cocktail (Sigma, #92714-1BTL). Protein concentration was determined by BCA assay (Pierce, #23225), lysate was diluted in Laemmli buffer (4×: 200 mM Tris pH 6.8, 400 mM DTT, 8% SDS, 0.4% bromophenol, 40% glycerol), heated to 95° C. for 5 minutes, and resolved on a 4-12% PAGE gel (ThermoFisher, NP0322BOX). PAGE gels were processed for Western blot as indicated above with IR800-conjugated streptavidin (LI-COR, #926-32230) overnight at 4° C. Images were captured by Odyssey CLx imaging system (LI-COR). Quantification of band intensities was performed using ImageJ software (NIH).

NCEH1 [2] = target: T1, NCEH1; assay: ADPL imaging and quantification of endogenous NCEH1 activity in live cells (inhibitor profiling by ADPL); format: cell-based; set-up: endogenous NCEH1 activity in SKOV3 cells; endogenous in cells; host or cells: SKOV3; wild-type PC3; PAFAH2-expressing PC3; settings: for IC50: inhibitor 4 hr before FP-Bio (2 μM, 40 min), read-out: apparent IC50, inhibition of NCEH1 by ADPL
Description: Cells were seeded in the 12-well chamber slide, typically at 10,000-30,000 cells per well (Ibidi, #81201). To get an even distribution of the cells, the chamber slide was pre-wetted with cell culture medium, drained off, and the chamber was left at room temperature for 5-10 min after seeding. Cells at 80-90% confluency were pulse treated with either FP-Bio (2 μM) in DMEM and incubated at 37° C. for 40 min or Capthepsin probe (5 μM) in complete medium and incubated at 37° C. for 3 hr. Cells were washed with PBS, fixed with 4% paraformaldehyde in PBS at room temperature for 15 minutes, washed twice with PBS for 5 minutes each at room temperature with orbital shaking and then permeabilized in 0.5% Triton X-100 in PBS at room temperature for 15 minutes. Finally, cells were washed twice with 0.05% Tween-20 in PBS for 5 minutes each at room temperature with orbital shaking.
Prior to antibody incubation, the chamber was removed and the well boundaries delineated with the hydrophobic barrier pen (Vector laboratories, #H-4000). One-drop Duolink blocking buffer (Sigma, #DUO92004) was added and the slide was incubated at 37° C. for 30 minutes in a humidified chamber. The blocking solution was removed by tapping, followed by addition of 10 μg/ml of the anti-biotin (rabbit, Abcam, #G196266) and primary antibody for the protein of interest: anti-FLAG (mouse, 4 μg/ml of Sigma, #F1804-5 mg); anti-NCEH1 (mouse, 4 μg/ml of in-house polyclonal), anti-FAAH (mouse, 4 μg/ml of Abcam, #ab54615) for serine hydrolase members. […]
For quantitative analysis single cell boundaries were identified manually using the DIC image. Then the “ROI Manager” tool in Image) was utilized to add all the cell outlines as a collection and overlay with the ADPL channel to measure per-cell fluorescence intensity. Typical quantitative comparisons were made using data from three or more independent fields of view per independent biological replicate condition. […]

Question: What does the source list for `CC(C)c1ccccc1OC(=O)NCCc1ccc2ccccc2c1` [JW480]?
Answer: NCEH1 activity by gel-based profiling (FP-Bio labeling) (NCEH1 [1]): significant and selective inhibition of NCEH1 activity; also recorded: specifically inhibits labeling of NCEH1; IC50 (NCEH1 [2]; PAFAH2 expressing PC3 cells): 8 nM; NCEH1 activity by ADPL imaging and quantification relative to vehicle (NCEH1 [2]; SKOV3 cells, 1 μM, 4 hr pre-treatment before FP-Bio): significantly reduced; IC50 (NCEH1 [2]; wild-type PC3 cells): 6 nM
